Assay results from paper PMC6222329 (Molecules : A Journal of Synthetic Chemistry and Natural …, 2018).

Key:
[1] = target: T1, AChE (Electrophorus electricus) (Electrophorus electricus, UniProt O42275); assay: AChE inhibition, Ellman's method; assay type: biochemical
T1 construct: purchased Sigma-Aldrich (Steinheim, Germany)
Description: (§1) The assay was performed in two steps.
(§2) All enzymes were obtained from Sigma-Aldrich (Steinheim, Germany). Ellman’s reagent and the substrates were obtained from Fluka (Buchs, Switzerland). The chemicals used to prepare the buffer solution were purchased from Merck (Darmstadt, Germany).
(§3) The enzyme inhibitory activities of the synthesized compounds were investigated by applying Ellman’s method. Enzyme solutions were dissolved in gelatin solution (1%; 2.5 units/mL). […] Then, the reaction was initiated by the addition of Ellman’s reagent 5,5′-Dithiobis(2-nitrobenzoic acid) (DTNB; 20 µL/well, 10 mM) and the substrate (10 µL/well, 75 mM). […] The enzyme solution was processed as a control. All readings were adjusted with blank-reading. All assays were performed in four independent wells. […] Absorbance differences between the two readings were taken, and percentage inhibition rates were calculated according to the following formula: % Inhibition=[(A(C)−A(B))−(A(I)−A(B))]/(A(C)−A(B))×100.
(§4) • Blank (B): the well in which the inhibitor compound and substrate were not added; • Control (C): the well where the inhibitor compound was not added; • A(B): the difference in absorbance reading for the blank; • A(C): the difference in absorbance reading for the control; • A(I): the difference in absorbance reading for the inhibitor compounds.

AChE (Human) = target: T2, AChE (Human) (Homo sapiens, UniProt P22303); assay: AChE inhibition, Ellman's method; assay type: biochemical
T2 construct: purchased Sigma-Aldrich (Steinheim, Germany)
T2 sequence (P22303 32-614): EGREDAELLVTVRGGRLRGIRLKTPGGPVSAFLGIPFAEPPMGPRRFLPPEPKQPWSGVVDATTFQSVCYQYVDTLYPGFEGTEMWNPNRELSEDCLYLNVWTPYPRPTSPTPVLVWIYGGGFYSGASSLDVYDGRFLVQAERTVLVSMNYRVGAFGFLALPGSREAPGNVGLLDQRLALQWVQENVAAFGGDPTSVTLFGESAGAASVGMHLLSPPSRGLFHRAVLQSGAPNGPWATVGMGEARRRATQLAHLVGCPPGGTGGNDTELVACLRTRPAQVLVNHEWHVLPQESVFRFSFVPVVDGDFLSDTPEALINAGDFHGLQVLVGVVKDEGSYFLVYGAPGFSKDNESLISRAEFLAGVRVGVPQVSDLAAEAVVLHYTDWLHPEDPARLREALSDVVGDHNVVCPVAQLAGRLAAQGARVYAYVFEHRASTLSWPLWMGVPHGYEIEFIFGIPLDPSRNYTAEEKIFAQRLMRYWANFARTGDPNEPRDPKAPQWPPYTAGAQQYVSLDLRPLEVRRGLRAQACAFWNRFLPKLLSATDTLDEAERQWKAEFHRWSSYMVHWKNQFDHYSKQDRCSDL
Description: as §1, §2, §3, §4

BChE (Equine) = target: T3, BChE (Equine) (Equus caballus, UniProt P81908); assay: biochemical; assay type: biochemical
T3 construct: purchased Sigma-Aldrich (Steinheim, Germany)
T3 sequence (P81908 whole entry): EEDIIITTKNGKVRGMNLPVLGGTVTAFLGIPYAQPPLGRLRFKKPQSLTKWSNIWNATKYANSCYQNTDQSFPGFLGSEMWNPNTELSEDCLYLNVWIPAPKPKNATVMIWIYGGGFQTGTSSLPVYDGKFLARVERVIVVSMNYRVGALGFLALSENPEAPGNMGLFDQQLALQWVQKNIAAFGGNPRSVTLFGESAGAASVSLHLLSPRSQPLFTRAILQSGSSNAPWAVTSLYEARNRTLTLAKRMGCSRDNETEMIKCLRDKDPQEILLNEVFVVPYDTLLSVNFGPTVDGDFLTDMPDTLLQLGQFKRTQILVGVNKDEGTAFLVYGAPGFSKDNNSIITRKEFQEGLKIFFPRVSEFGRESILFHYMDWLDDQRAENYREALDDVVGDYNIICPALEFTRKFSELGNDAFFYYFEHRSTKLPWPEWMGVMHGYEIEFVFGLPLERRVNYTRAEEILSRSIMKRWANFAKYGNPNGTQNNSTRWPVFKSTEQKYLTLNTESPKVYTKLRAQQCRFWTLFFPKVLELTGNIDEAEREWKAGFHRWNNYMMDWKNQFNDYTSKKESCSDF
Description: as §1, §2, §3, §4

BChE (Human) = target: T4, BChE (Human) (Homo sapiens, UniProt P06276); assay: BChE inhibition, Ellman's method; assay type: biochemical; details: for IC50: read-out: BChE (Human) IC50
T4 construct: purchased Sigma-Aldrich (Steinheim, Germany)
T4 sequence (P06276 29-602): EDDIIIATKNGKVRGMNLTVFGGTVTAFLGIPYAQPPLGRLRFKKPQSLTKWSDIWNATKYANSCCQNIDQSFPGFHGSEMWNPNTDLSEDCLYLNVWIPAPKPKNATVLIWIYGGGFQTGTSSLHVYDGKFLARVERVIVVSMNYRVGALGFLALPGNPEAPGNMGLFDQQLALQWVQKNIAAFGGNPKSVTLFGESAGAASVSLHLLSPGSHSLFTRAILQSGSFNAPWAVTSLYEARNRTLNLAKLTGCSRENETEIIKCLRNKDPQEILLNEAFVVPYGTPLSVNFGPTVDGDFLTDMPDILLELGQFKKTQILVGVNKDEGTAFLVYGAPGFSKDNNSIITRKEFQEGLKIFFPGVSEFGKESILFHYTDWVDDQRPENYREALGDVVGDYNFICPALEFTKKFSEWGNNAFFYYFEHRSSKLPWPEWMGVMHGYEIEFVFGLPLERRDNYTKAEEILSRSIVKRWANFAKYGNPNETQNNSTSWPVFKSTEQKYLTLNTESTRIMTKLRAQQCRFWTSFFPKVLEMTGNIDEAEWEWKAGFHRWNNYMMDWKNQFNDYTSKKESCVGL
Description: as §1, §2, §3, §4

[2] = test system: murine fibroblast healthy cell line (NIH3T3); assay: MTT cell viability assay; assay type: cell-based; details: 24 h, 0.000316 µM to 1000 µM, read-out: IC50 against NIH3T3
Description: The active compounds (4a, 4b, 4e, 4i, 4m, 4n, 4o, and 4t) were chosen to determine their cytotoxic activity toward a murine fibroblast healthy cell line (NIH3T3). After incubating the cells with active compounds at concentrations of 0.000316 µM to1000 µM for 24 h, the cell viability was measured using the 3-(4,5-dimethylthiazol-2-yl)-2,5-diphenyltetrazolium (MTT) assay. The inhibition percentage was calculated for each concentration of the test compounds. The IC50 values of the compounds were determined using a non-linear regression analysis over the calculated percentage inhibition values, and they are presented in Table 2. Accordingly, the cytotoxicity test proposed that the active derivatives were nontoxic against NIH3T3 cells at their active concentrations against BChE.
Healthy murine embryonic fibroblast cells (NIH3T3 cell line) were used for the cytotoxicity tests. The cell line and selected compounds were prepared for an MTT assay as reported previously. The optical densities (OD) of 96 well plates were recorded at 540 nm. […]

T1 sequence (O42275 24-633): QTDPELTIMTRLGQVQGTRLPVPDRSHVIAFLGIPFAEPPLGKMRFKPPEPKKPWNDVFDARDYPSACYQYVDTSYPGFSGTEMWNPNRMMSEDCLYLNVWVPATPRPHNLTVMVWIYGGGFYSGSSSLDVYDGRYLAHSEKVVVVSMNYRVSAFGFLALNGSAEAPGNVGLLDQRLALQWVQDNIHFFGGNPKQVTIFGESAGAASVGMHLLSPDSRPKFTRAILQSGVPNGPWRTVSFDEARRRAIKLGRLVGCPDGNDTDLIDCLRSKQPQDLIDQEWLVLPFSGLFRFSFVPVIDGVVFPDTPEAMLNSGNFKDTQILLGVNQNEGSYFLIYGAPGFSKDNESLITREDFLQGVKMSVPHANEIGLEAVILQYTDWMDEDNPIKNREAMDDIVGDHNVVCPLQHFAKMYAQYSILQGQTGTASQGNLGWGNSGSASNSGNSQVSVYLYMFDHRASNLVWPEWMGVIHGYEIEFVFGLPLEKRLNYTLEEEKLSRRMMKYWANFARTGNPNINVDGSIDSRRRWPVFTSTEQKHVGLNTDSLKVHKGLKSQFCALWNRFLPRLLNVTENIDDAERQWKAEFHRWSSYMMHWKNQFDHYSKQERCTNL

| Compound | AChE (Electrophorus electricus) inhibitory activity (%) ± SD ([1]; 10^-3 M) | AChE (Electrophorus electricus) inhibitory activity (%) ± SD ([1]; 10^-4 M) | AChE (Human) inhibitory activity (%) ± SD (AChE (Human); 10^-3 M) | AChE (Human) inhibitory activity (%) ± SD (AChE (Human); 10^-4 M) | IC50 (BChE (Equine)) | BChE (Equine) inhibitory activity (%) ± SD (BChE (Equine); 10^-3 M) | BChE (Equine) inhibitory activity (%) ± SD (BChE (Equine); 10^-4 M) | BChE (Equine) inhibitory activity (%) ± SD (BChE (Equine); 10^-5 M) | BChE (Equine) inhibitory activity (%) ± SD (BChE (Equine); 10^-6 M) | BChE (Equine) inhibitory activity (%) ± SD (BChE (Equine); 10^-7 M) | BChE (Equine) inhibitory activity (%) ± SD (BChE (Equine); 10^-8 M) | BChE (Equine) inhibitory activity (%) ± SD (BChE (Equine); 10^-9 M) | BChE (Human) inhibitory activity (%) ± SD (BChE (Human); 10^-3 M) | BChE (Human) inhibitory activity (%) ± SD (BChE (Human); 10^-4 M) | BChE (Human) inhibitory activity (%) ± SD (BChE (Human); 10^-5 M) | BChE (Human) inhibitory activity (%) ± SD (BChE (Human); 10^-6 M) | BChE (Human) inhibitory activity (%) ± SD (BChE (Human); 10^-7 M) | BChE (Human) inhibitory activity (%) ± SD (BChE (Human); 10^-8 M) | BChE (Human) inhibitory activity (%) ± SD (BChE (Human); 10^-9 M) | IC50 (BChE (Human)) | also measured |
| --- | --- | --- | --- | --- | --- | --- | --- | --- | --- | --- | --- | --- | --- | --- | --- | --- | --- | --- | --- | --- | --- |
| CN(C)CCN1CCN(C(=S)SCC(=O)Nc2c3ccccc3nc3ccccc23)CC1 [Compound 4a, 2-(9-Acridinylamino)-2-oxoethyl 4-(2-(dimethylamino)ethyl)piperazine-1-carbodithioate] | 60.13±1.54% | 17.03 ± 0.48% | 62.20±1.05% | 18.15 ± 0.51% | 0.226 ± 0.008 µM | 99.13±3.21% | * 91.13 ± 2.94% | 84.80±2.76% | 52.10±1.04% | 39.90±0.81% | 28.24±0.54% | 19.69±0.99% | 98.50±2.46% | * 93.25 ± 2.24% | 86.20±1.46% | 55.00±1.11% | 36.21±0.97% | 30.20±0.68% | 15.79±0.81% | 0.243 ± 0.009 µM | IC50 [2]: 26.8 µM |
| CN(C)CCCN1CCN(C(=S)SCC(=O)Nc2c3ccccc3nc3ccccc23)CC1 [Compound 4b, 2-(9-Acridinylamino)-2-oxoethyl 4-(3-(dimethylamino)propyl)piperazine-1-carbodithioate] | 79.95±1.78% | 32.41 ± 1.01% | 75.66±1.17% | 35.49 ± 1.00% | 0.264 ± 0.012 µM | 98.16±3.11% | * 82.50 ± 2.07% | 70.30 ±1.80% | 46.10±0.74% | 41.80±0.81% | 33.04±0.78% | 26.35±0.77% | 97.55±2.05% | * 84.18 ± 2.21% | 72.99 ±1.35% | 45.26±0.85% | 40.87±0.67% | 35.28±0.53% | 28.74±0.50% | 0.222 ± 0.01 µM | IC50 [2]: 25.6 µM |
| O=C(CSC(=S)N1CCN(CCO)CC1)Nc1c2ccccc2nc2ccccc12 [Compound 4e, 2-(9-Acridinylamino)-2-oxoethyl 4-(2-hydroxyethyl)piperazine-1-carbodithioate] | 48.67±1.51% | 7.09 ± 0.64% | 50.22±1.12% | 10.13 ± 0.51% | 1.42 ± 0.068 µM | 97.00±3.16% | * 95.98 ± 2.88% | 57.53±1.89% | 29.52±1.07% | 24.26±0.54% | 18.89±0.84% | 10.77±0.58% | 98.95±2.10% | * 96.57 ± 2.03% | 55.00±1.20% | 30.62±1.28% | 26.54±0.74% | 17.89±0.53% | 8.72±0.30% | 1.37 ± 0.057 µM | IC50 [2]: 325 µM |
| O=C(CSC(=S)N1CCN(c2ccc(Cl)cc2)CC1)Nc1c2ccccc2nc2ccccc12 [Compound 4i, 2-(9-Acridinylamino)-2-oxoethyl 4-(4-chlorophenyl)piperazine-1-carbodithioate] | 86.41±2.91% | 35.91 ± 1.57% | 89.20±1.25% | 33.85 ± 1.15% | 2.04 ± 0.068 µM | 99.37±3.41% | * 69.51 ± 1.16% | 44.32±0.79% | 38.72±0.82% | 33.65±0.45% | 26.52±0.80% | 25.73±0.70% | 98.22±2.14% | * 72.90 ± 1.08% | 42.99±1.02% | 35.00±0.87% | 30.49±0.56% | 21.77±0.40% | 20.69±0.38% | 2.1 ± 0.085 µM | IC50 [2]: > 1000 µM |
| O=C(CSC(=S)N1CCOCC1)Nc1c2ccccc2nc2ccccc12 [Compound 4r, 2-(9-Acridinylamino)-2-oxoethyl morpholine-4-carbodithioate] | 68.20±1.69% | 37.33 ± 1.03% | 64.93±1.21% | 40.70 ± 1.00% | – | 91.26±3.42% | 45.30 ± 1.88% | – | – | – | – | – | 94.18±2.62% | 43.29 ± 1.17% | – | – | – | – | – | – | – |
| O=C(CSC(=S)N1CCCCC1)Nc1c2ccccc2nc2ccccc12 [Compound 4s, 2-(9-Acridinylamino)-2-oxoethyl piperidine-1-carbodithioate] | 44.51±0.96% | 32.17 ± 1.23% | 49.05±0.88% | 35.20 ± 1.12% | – | 86.72±3.07% | 38.40 ± 0.74% | – | – | – | – | – | 84.27±2.16% | 34.99 ± 0.63% | – | – | – | – | – | – | – |
| CC1CCCCN1C(=S)SCC(=O)Nc1c2ccccc2nc2ccccc12 (centres unmarked) [Compound 4t, 2-(9-Acridinylamino)-2-oxoethyl 2-methylpiperidine-1-carbodithioate] | 81.22±2.77% | 15.94 ± 0.42% | 85.44±1.72% | 14.51 ± 0.44% | 1.52 ± 0.072 µM | 96.06±3.61% | * 55.00 ± 1.74% | 49.04±0.68% | 41.33±0.41% | 35.75±0.53% | 30.66±0.59% | 28.50±0.66% | 97.28±3.00% | * 54.26 ± 1.27% | 48.19±1.08% | 38.35±0.88% | 36.47±0.60% | 32.40±0.57% | 29.77±0.41% | 1.61 ± 0.062 µM | – |
| O=C(CSC(=S)N1CCC(Cc2ccccc2)CC1)Nc1c2ccccc2nc2ccccc12 [Compound 4u, 2-(9-Acridinylamino)-2-Oxoethyl 4-Benzylpiperidine-1-Carbodithioate] | 69.30±1.28% | 25.88 ± 0.74% | 65.77±1.17% | 30.71 ± 0.52% | – | 32.20±0.59% | 29.50 ± 0.48% | – | – | – | – | – | 38.33±0.87% | 31.21 ± 0.50% | – | – | – | – | – | – | – |
